Assay results reported in publication PMC4209782 (Biochemical Journal, 2014).

Experiments:
[1] = test system: 4EBP1 phosphorylation (Thr37, Thr46 and Ser65); test: 4E-BP1 phosphorylation (mTORC1 sites), immunoblot of treated U2OS cells; assay type: cell-based; conditions: AZD8055 0.1 μM
Description: (§1) U20S cell line was kindly provided by John Rouse (MRC Protein Phosphorylation and Ubiquitylation Unit, University of Dundee, Dundee, U.K.). Cells were cultured in DMEM (Dulbecco's modified Eagle's medium) supplemented with 10% (v/v) FBS, 2 mM L-glutamine, 100 U/ml penicillin and 0.1 mg/ml streptomycin. cDNA for mouse Hrs (residues 147–223 ×2 joined by a linker) were cloned into a pBABE.puro vector. […] . The virus was harvested 48 h after transfection and applied to U20S cells in the presence of 10 μg/ml polybrene. Cells were selected with 10 μg/ml puromycin before single cell colony selection to identify low expression GFP–FYVEHrs clones. U2OS Flp/In cell line was kindly provided by John Rouse. Cells were cultured in McCoy medium supplemented with 10% (v/v) FBS, 2 mM L-glutamine, 100 U/ml penicillin and 0.1 mg/ml streptomycin. Stable cell lines expressing doxycycline-inducible proteins were generated using the Flp-In™ T-REx™ system (Invitrogen). Stable transfected clones were selected using 0.01 mM hygromycin in cell medium. Protein expression was induced by adding 0.01 mg/ml doxycycline in the medium for 24 h prior to cell lysis. Inhibitor treatment was carried out as described in the Figure legends. The cells were lysed in buffer containing 50 mM Tris/HCl (pH 7.5), 150 mM NaCl, 1 mM EDTA, 1 mM EGTA, 1 mM sodium orthovanadate, 10 mM sodium glycerophosphate, 50 mM sodium fluoride, 10 mM sodium pyrophosphate, 0.27 M sucrose, 0.1% 2-mercaptoethanol, 1 mM benzamidine and 0.1 mM PMSF. Lysates were clarified by centrifugation at 16000 g for 10 min at 4°C. Protein concentration was calculated using Bradford assay (Thermo Scientific). Immunoblotting and immunoprecipitation were performed using standard procedures. The signal was developed using the ECL Western Blotting Detection kit (GE Healthcare) on Hyperfilm ECL film (GE Healthcare). […]

SGK3 = SGK3 kinase activity after immunoprecipitation from inhibitor-treated U2OS cells (Crosstide assay); assay type: cell-based
[2] = test system: Akt (Thr308, Ser473) and Akt substrate PRAS40 (Thr246) phosphorylation; test: Akt and PRAS40 phosphorylation, immunoblot of treated U2OS cells; assay type: cell-based; conditions: 1 h
Description: U20S cell line was kindly provided by John Rouse (MRC Protein Phosphorylation and Ubiquitylation Unit, University of Dundee, Dundee, U.K.). Cells were cultured in DMEM (Dulbecco's modified Eagle's medium) supplemented with 10% (v/v) FBS, 2 mM L-glutamine, 100 U/ml penicillin and 0.1 mg/ml streptomycin. cDNA for mouse Hrs (residues 147–223 ×2 joined by a linker) were cloned into a pBABE.puro vector. […] . The virus was harvested 48 h after transfection and applied to U20S cells in the presence of 10 μg/ml polybrene. Cells were selected with 10 μg/ml puromycin before single cell colony selection to identify low expression GFP–FYVEHrs clones. U2OS Flp/In cell line was kindly provided by John Rouse. Cells were cultured in McCoy medium supplemented with 10% (v/v) FBS, 2 mM L-glutamine, 100 U/ml penicillin and 0.1 mg/ml streptomycin. Stable cell lines expressing doxycycline-inducible proteins were generated using the Flp-In™ T-REx™ system (Invitrogen). Stable transfected clones were selected using 0.01 mM hygromycin in cell medium. Protein expression was induced by adding 0.01 mg/ml doxycycline in the medium for 24 h prior to cell lysis. Inhibitor treatment was carried out as described in the Figure legends. The cells were lysed in buffer containing 50 mM Tris/HCl (pH 7.5), 150 mM NaCl, 1 mM EDTA, 1 mM EGTA, 1 mM sodium orthovanadate, 10 mM sodium glycerophosphate, 50 mM sodium fluoride, 10 mM sodium pyrophosphate, 0.27 M sucrose, 0.1% 2-mercaptoethanol, 1 mM benzamidine and 0.1 mM PMSF. Lysates were clarified by centrifugation at 16000 g for 10 min at 4°C. Protein concentration was calculated using Bradford assay (Thermo Scientific). Immunoblotting and immunoprecipitation were performed using standard procedures. The signal was developed using the ECL Western Blotting Detection kit (GE Healthcare) on Hyperfilm ECL film (GE Healthcare).
The following antibodies were raised in sheep, by the DSTT (Division of Signal Transduction Therapy) at the University of Dundee, and affinity-purified against the indicated antigens: anti-Akt1 (S695B, third bleed; raised against residues 466–480 of human Akt1: […]), anti-PRAS40 (proline-rich Akt substrate 40 kDa) (S115B, first bleed; raised against residues 238–256 of human PRAS40: […]), anti-(phospho-PRAS40 Thr^246) (S114B, second bleed; raised against residues 240–251 of human PRAS40: CRPRLNTpSDFQK), anti-NDRG1 (N-Myc downstream-regulated gene-1) (S276B third bleed; raised against full-length human NDRG1) and anti-SGK3 [S037D second bleed; raised against human SGK3 PX domain comprising residues 1–130 of SGK3]. […] Anti-(phospho-SGK hydrophobic motif [Ser^486 in SGK3]) antibody (sc16745) was from Santa Cruz Biotechnology and total SGK1/2 antibody was from Sigma (5188) as was the mouse anti-FLAG antibody. Secondary antibodies coupled to HRP (horseradish peroxidase) were obtained from Thermo Scientific.
. […] (B and C) As in (A) except cells were treated with the indicated doses of the BKM120 class I PI3K inhibitor.

Vps34 = conditions: cited from earlier work
[3] = test system: endosomal PtdIns(3)P (GFP–2×FYVEHrs probe) in U2OS cells; test: GFP–2×FYVEHrs probe localization, live imaging (time-lapse) in U2OS cells
Description: (§2) Cells were cultured on glass coverslips and processed for immunocytochemistry using standard protocols. […] For experiments quantifying co-localization of SGK3–GFP with EEA1 (early endosome antigen 1) and localization GFP–FYVEHrs in response to inhibitor treatment, cells were permeabilized via one freeze–thaw cycle in liquid nitrogen and subsequently fixed. The following primary antibodies were used: rabbit anti-EEA1 (1:500 dilution; Life Technologies) and mouse anti-GFP (1:1000 dilution; Life Technologies) antibodies. […] Imaging was conducted using a Nikon Eclipse Ti-S microscope (×40 objective) or a Zeiss LSM710 laser scanning confocal microscope [×63 Plan-Apochromat oil immersion objective; 1.40 NA (numerical aperture)] as described in the Figure legends. Time-lapse microscopy was carried out on the same microscope using a heated incubator, heated stage plate and CO2 controller (Pecon) to maintain the cells.
Images were acquired every 0.5 min up to 60 min. Inhibitors were added after acquiring two images, except for VPS34-IN1 that was added after the first image taken. Post-acquisition, image analysis was conducted with Volocity 6.3 (PerkinElmer).
(§3) Time-lapse microscopy was performed on Zeiss 710 microscope using ×63 objective. […] The cells were fixed with 4% paraformaldehyde and images were taken using Zeiss 710 microscope at ×63 objective.

[4] = test system: PtdIns(3,4,5)P3/PtdIns(3,4)P2 (GFP–PHAkt1 probe) in U2OS cells; test: IGF1-induced plasma membrane recruitment of GFP–PHAkt1 in U2OS cells; conditions: 1 μM VPS34-IN1 or 0.5 μM GDC-0941 for 1 h, IGF 100 ng/ml 15 min
Description: as §2, §3

[5] = test system: SGK3 localization on endosomes in U2OS cells; test: SGK3–GFP endosomal localization, time-lapse microscopy in U2OS cells
Description: as §2
Images were acquired every 0.5 min up to 60 min. […] Post-acquisition, image analysis was conducted with Volocity 6.3 (PerkinElmer).
Images were taken using a Nicon Eclipse Ti-S microscope with ×40 objective (upper panel). […] Pictures were taken with Zeiss 710 microscope using ×100 objective. Mander's correlation coefficient in 112 cells was calculated using the Volocity 6.3 program. […] Time-lapse microscopy was performed on Zeiss 710 microscope using ×63 objective. Representative images are shown and similar results were obtained in two experiments.

[6] = test system: NDRG1 phosphorylation at Thr346; test: NDRG1 Thr346 phosphorylation, immunoblot of treated U2OS cells; assay type: cell-based; conditions: 1 h
Description: as §1, with “The cells were lysed in buffer containing 50 mM Tris/HCl (pH 7.5), 150 mM NaCl, 1 mM EDTA, 1 mM EGTA, 1 mM sodium orthovanadate, 10 mM sodium glycerophosphate, 50 mM sodium fluoride, 10 mM sodium pyrophosphate, 0.27 M sucrose, 0.1% 2-mercaptoethanol, 1 mM benzamidine and 0.1 mM PMSF. Lysates were clarified by centrifugation at 16000 g for 10 min at 4°C.” left out, “Scientific).” for “Scientific). Immunoblotting and immunoprecipitation were performed using standard procedures. The signal was developed using the ECL Western Blotting Detection kit (GE Healthcare) on Hyperfilm ECL film (GE Healthcare).”

[7] = test system: SGK3 phosphorylation (Thr320, Ser486); test: SGK3 T-loop and hydrophobic motif phosphorylation, immunoblot of treated U2OS cells; assay type: cell-based; conditions: for SGK3 T-loop and hydrophobic motif phosphorylation: 1 h, U2OS, immunoblot
Description: as §1

[8] = test system: endosomal PtdIns(3)P (GFP–2×FYVEHrs probe) in U2OS cells; test: GFP–2×FYVEHrs probe localization on endosomes, fixed U2OS cells; assay type: cell-based; conditions: for loss of endosomal localization of GFP–2×FYVEHrs: 1 h
Description: U20S cell line was kindly provided by John Rouse (MRC Protein Phosphorylation and Ubiquitylation Unit, University of Dundee, Dundee, U.K.). […] The virus was harvested 48 h after transfection and applied to U20S cells in the presence of 10 μg/ml polybrene. Cells were selected with 10 μg/ml puromycin before single cell colony selection to identify low expression GFP–FYVEHrs clones. U2OS Flp/In cell line was kindly provided by John Rouse. Cells were cultured in McCoy medium supplemented with 10% (v/v) FBS, 2 mM L-glutamine, 100 U/ml penicillin and 0.1 mg/ml streptomycin. Stable cell lines expressing doxycycline-inducible proteins were generated using the Flp-In™ T-REx™ system (Invitrogen). Stable transfected clones were selected using 0.01 mM hygromycin in cell medium. Protein expression was induced by adding 0.01 mg/ml doxycycline in the medium for 24 h prior to cell lysis. Inhibitor treatment was carried out as described in the Figure legends. The cells were lysed in buffer containing 50 mM Tris/HCl (pH 7.5), 150 mM NaCl, 1 mM EDTA, 1 mM EGTA, 1 mM sodium orthovanadate, 10 mM sodium glycerophosphate, 50 mM sodium fluoride, 10 mM sodium pyrophosphate, 0.27 M sucrose, 0.1% 2-mercaptoethanol, 1 mM benzamidine and 0.1 mM PMSF. Lysates were clarified by centrifugation at 16000 g for 10 min at 4°C. Protein concentration was calculated using Bradford assay (Thermo Scientific). Immunoblotting and immunoprecipitation were performed using standard procedures. The signal was developed using the ECL Western Blotting Detection kit (GE Healthcare) on Hyperfilm ECL film (GE Healthcare).
Cells were cultured on glass coverslips and processed for immunocytochemistry using standard protocols. […] For experiments quantifying co-localization of SGK3–GFP with EEA1 (early endosome antigen 1) and localization GFP–FYVEHrs in response to inhibitor treatment, cells were permeabilized via one freeze–thaw cycle in liquid nitrogen and subsequently fixed. […]
The average cell fluorescence was calculated by dividing total fluorescence of each field by the number of the cells in the field. […]

[9] = test system: panel of 19 lipid kinases (includes class I PI3Ks); test: Dundee lipid kinase profiling panel; assay type: biochemical; conditions: 1 μM
SGK2 = SGK2 kinase activity after immunoprecipitation from inhibitor-treated U2OS cells; conditions: 1 h, U2OS expressing SGK2
Description: In vitro kinase activity of SGK3 and SGK2 was assayed by measuring [γ-^32P]ATP incorporation into Crosstide substrate peptide [[sequence]]. SGK3 with a C-terminal FLAG-tag was immunoprecipitated from doxycycline-induced U2OS Flp/In cell lines. Immunoprecipitates were washed in sequence with lysis buffer containing high salt concentration (500 mM NaCl), lysis buffer and buffer A (50 mM Tris/HCl, pH 7.5, and 0.1 mM EGTA). Reactions were carried in 40 μl of total volume containing 0.1 mM [γ-^32P]ATP (400–1000 c.p.m./pmol), 10 mM magnesium acetate and 30 μM Crosstide peptide. Reactions were terminated by adding 10 μl of 0.1 mM EDTA and spotting 40 μl of the reaction mixture on P81 paper which were immediately immersed into 50 mM orthophosphoric acid. Papers were washed several times in 50 mM orthophosphoric acid, rinsed in acetone and air dried. Radioactivity was quantified by Cerenkov counting. One unit of enzyme activity was defined as the amount of enzyme that catalyses incorporation of 1 nmol of [γ-^32P]ATP into the substrate over 1 min.
The cells were lysed and SGK3 immunoprecipitated with anti-FLAG antibody. […]

[10] = test system: ProQinase panel of 300 protein kinases; test: ProQinase protein kinase profiling panel; assay type: biochemical; conditions: 1 μM, 300 kinases
Source text: Supplementary Figure Legends
technology. The assay conditions are described at
activity in DMSO control.

[11] = test system: Dundee panel of 140 protein kinases; test: Dundee protein kinase profiling panel; conditions: 1 μM, 140 kinases
Description: (C) Protein kinase profiling of the VPS34-IN1 at a single concentration of 1 μM carried out against the Dundee panel of 140 protein kinases at the International Centre for Protein Kinase Profiling. […] Abbreviations and assay conditions used for each kinase are defined at http://www.kinase-screen.mrc.ac.uk.

COc1ccc(-c2ccc3c(N4CCOC[C@@H]4C)nc(N4CCOC[C@@H]4C)nc3n2)cc1CO [AZD8055]
phosphorylation of 4EBP1 at sites phosphorylated by mTORC1 [1]: marked dephosphorylation

Nc1cc(C(F)(F)F)c(-c2cc(N3CCOCC3)nc(N3CCOCC3)n2)cn1 [BKM120]
phosphorylation of 4EBP1 at sites phosphorylated by mTORC1 [1]: lack of effect | inhibition at 0.5 µM (SGK3; Homo sapiens, U2OS, 1 h, read-out: inhibition of SGK3 activity by class I PI3K inhibitor): ~40% | Akt phosphorylation at Ser473 and Thr308 [2]: near basal levels | phosphorylation of Akt substrate PRAS40 (Thr246) [2]: near basal levels | inhibition of Vps34 (Vps34): do not inhibit

CS(=O)(=O)N1CCN(Cc2cc3nc(-c4cccc5[nH]ncc45)nc(N4CCOCC4)c3s2)CC1 [GDC-0941, 2-(1H-indazol-4-yl)-6-(4-methanesulfonyl-piperazin-1-ylmethyl)-4-morpholin-4-yl-t hieno[3,2-d]pyrimidine, reference compound]
effect on endosomal localization of GFP–2×FYVEHrs ([3]; 0.5 μM GDC-0941 alone or with 1 μM VPS34-IN1, up to 60 min, live imaging): had no effect | phosphorylation of 4EBP1 at sites phosphorylated by mTORC1 [1]: lack of effect | effect on IGF1-induced plasma membrane recruitment of GFP–PHAkt1 [4]: blocked | effect on SGK3 activity and phosphorylation at 1 min (SGK3; 0.5 μM GDC-0941, 1 min time point): little effect | time to near maximal inhibition of SGK3 activity (SGK3; 0.5 μM GDC-0941, time course): 2 min | Akt phosphorylation at Ser473 and Thr308 [2]: near basal levels | phosphorylation of Akt substrate PRAS40 (Thr246) [2]: near basal levels | effect on SGK3 localization on endosomes ([5]; 0.5 μM GDC-0941 alone or with 1 μM VPS34-IN1, time-lapse): did not change significantly | NDRG1 phosphorylation at Thr346 [6]: significantly suppressed | inhibition of Vps34 (Vps34): do not inhibit

CNc1nc(-c2ccc3c(N)n[nH]c3c2)cc(N2C[C@@H](C(=O)NC3CCCCC3)CC[C@H]2C)n1 [GSK2334470, reference compound]
SGK3 activity after PDK1 inhibitor (SGK3; 1 μM, 1 h, U2OS): near basal levels | SGK3 T-loop and hydrophobic motif phosphorylation [7]: near basal levels

CC(C)(O)CNc1ncc(-c2ccnc(Nc3ccnc(Cl)c3)n2)c(CC2CC2)n1 [VPS34-IN1, 1-[{2-[(2-chloropyridin-4yl)amino]-4′-(cyclopropylmethyl)-[4,5′-bipyrimidin]-2′-yl}amino]-2-methyl-propan-2-ol]
effect on GFP–2×FYVEHrs localization ([8]; 0.01 μM): weak effect | loss of endosomal localization of GFP–2×FYVEHrs ([8]; 0.1 μM): ~ 50% | loss of endosomal localization of GFP–2×FYVEHrs ([8]; 1.0 μM): ~ 80% | time to near maximal dispersal of endosomal GFP–2×FYVEHrs ([3]; 1 μM, live imaging, U2OS): ≤ 2 min | time to significant dispersal of endosomal GFP–2×FYVEHrs ([3]; 1 μM, live imaging, U2OS): ≤ 1 min | time until dispersal of endosome-localized GFP–2×FYVEHrs is essentially complete ([3]; live cell imaging, U2OS): 60 to 120 s | inhibition of lipid kinases, Dundee panel [9]: did not significantly inhibit | effect on IGF1-induced plasma membrane recruitment of GFP–PHAkt1 [4]: had no impact | reduction in SGK3 activity (SGK3; 0.1 μM VPS34-IN1, 1 h, U2OS): ~ 40% | reduction in SGK3 activity (SGK3; 1 μM VPS34-IN1, 1 h, U2OS): ~ 60% | time to 50% reduction of SGK3 activity (SGK3; 1 μM VPS34-IN1, time course): ≤ 15 s | time to maximal suppression of SGK3 activity (SGK3; 1 μM VPS34-IN1, time course): ≤ 1 min | decrease in SGK3 activity on VPS34-IN1 treatment (SGK3; U2OS, concentration not given): 50–60% | time to nearly maximal reduction in SGK3 activity and phosphorylation (SGK3; VPS34-IN1, as stated in Discussion): ≤ 30 s | inhibition of SGK2 activity (SGK2): did not inhibit | Akt phosphorylation at Ser473 and Thr308 [2]: had no effect | phosphorylation of Akt substrate PRAS40 (Thr246) [2]: had no effect | time to dispersal of SGK3 from the endosomes ([5]; 1 μM, time-lapse, U2OS): ≤ 1 min | time until dispersal of endosome-localized GFP–SGK3 is essentially complete ([5]; live cell imaging, U2OS): 60 to 120 s | inhibition of protein kinases, ProQinase panel [10]: did not significantly inhibit | NDRG1 phosphorylation at Thr346 [6]: only affected moderately | SGK3 T-loop and hydrophobic motif phosphorylation [7]: commensurate decrease | loss of SGK3 phosphorylation ([7]; within 1 min): 50–60% | inhibition of protein kinases, Dundee panel [11]: did not significantly inhibit
